Calls of active or inactive are those of the source.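 Rule for the calls: active = EC50 no more than a set limit of log units above the highest dose; inactive = the rest.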
Target: S. pyogenes SKKanGAS, kanamycin survival, BacTiterGlo, 6 h
Test: S. pyogenes SKKanGAS kanamycin growth inhibitors – SKKanGAS strain, luminescence, dose confirmation, streptokinase promoter inhibitor project, dose response (AID 1902);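 note: lower survival reflects blocked streptokinase promoter driving kanamycin resistance gene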

Point of comparison: `CCc1ccc(-c2cc(C(=O)N/N=C/c3c[nH]c4ccccc34)[nH]n2)cc1`, EC50 5.96 µM. Against it:
- CC1CC(NC(=O)c2c(O)nc3sccn3c2=O)CC(C)(C)C1 (stereo unspecified) — within 1.5-fold, 7.03 µM
- O=c1c2ccccc2sn1-c1ccccc1 — 5.4-fold lower, 1.11 µM
- Cc1ccc(NC(=O)CN(C)Cc2nc3c(Br)cc(Br)cc3c(=O)[nH]2)cc1 — 1.6-fold lower, 3.79 µM
- O=c1c2cc(Br)ccc2nc(-c2cccc(Cl)c2)n1O — 5.5-fold lower, 1.09 µM
- CCCSc1cc(N2CCCC2)nc(-c2ccccc2)n1 — within 1.5-fold, 6.8 µM
- Nc1cc(-c2ccc(OC(F)(F)F)cc2)nn1-c1ccc(Cl)c(Cl)c1 — within 1.5-fold, 6.17 µM
- Cc1csc2c(N3CCN(C(=O)Nc4ccc(Cl)c(Cl)c4)CC3)ncnc12 — 2-fold lower, 2.99 µM
- O=C(NC(=S)N(CCCCO)C1CCCCC1)c1sc2ccccc2c1Cl — 11-fold lower, 0.527 µM
- O=C(NNC1=C(C(=O)C(F)(F)F)CCC1)c1cccc(Cl)c1 — 6.4-fold lower, 0.931 µM
- O=C(Nc1nnc(-c2ccccc2)o1)c1ccc(Cl)cc1 — 23-fold lower, 0.254 µM
- Oc1c(Cl)cc(Cl)c2cccnc12 — 40-fold lower, 0.148 µM
- CC(C)/C(=N/Nc1ccccc1[N+](=O)[O-])c1ccccc1 — within 1.5-fold, 6.51 µM
- O=C(/C=C/c1ccccc1)NC(=S)NNC(=O)Cc1cccs1 — 4.1-fold lower, 1.47 µM
- C/C(=N\Nc1nc2ccccc2[nH]1)c1ccc2c(c1)OCO2 — within 1.5-fold, 4.28 µM
- CCCCC1CCC(c2nc(-c3ccccn3)no2)CC1 (stereo unspecified) — within 1.5-fold, 8.61 µM
- Cc1onc(-c2ccccc2)c1C(=O)NC(=S)NNC(=O)c1ccco1 — 6.3-fold lower, 0.943 µM
- CN1/C(=C\C(=O)Nc2ccc(Cl)cc2)C(C)(C)c2ccccc21 — within 1.5-fold, 8.64 µM
- CCc1ccc(/C=N/n2c(C3CCCCC3)n[nH]c2=S)cc1 — within 1.5-fold, 7.16 µM
- C/C(=N\NC(=O)c1ccc(-c2ccccc2)cc1)C1C(=O)c2ccccc2C1=O — 5.4-fold lower, 1.1 µM
- CC/C(=C\C=C\[C@@H]1C=C[C@@H]2CCC[C@H]2[C@@H]1C(=O)c1ccc[nH]1)[C@@H]1O[C@@H]([C@@H](C)C(=O)O)CC[C@@H]1C — 47-fold lower, 0.127 µM
- FC(F)(F)c1cc(-c2ccco2)nc(NCc2ccc(Cl)cc2)n1 — within 1.5-fold, 7.1 µM
- Cc1sc2ncnc(N/N=C/c3ccccc3O)c2c1C — within 1.5-fold, 4.09 µM
- Cc1cc(NCc2ccccn2)n2nc(C)c(-c3ccc(Cl)cc3)c2n1 — within 1.5-fold, 4.36 µM
- Cc1ccc(C)n1-c1sc2c(c1C#N)CCC(C)C2 (stereo unspecified) — 2.5-fold lower, 2.35 µM
- CCC(=O)Oc1ccc(-c2nc(-c3cccnc3)no2)cc1 — within 1.5-fold, 4.3 µM
- COc1ccc(Oc2nc(-c3ccccn3)nc3ccccc23)cc1 — within 1.5-fold, 6.49 µM
- C/C(=N\NC(=O)c1cc2ccccc2cc1O)c1cccs1 — 2.1-fold higher, 12.5 µM
- O=C(Nc1ccc2c(c1)CCC2)c1cc(S(=O)(=O)Nc2ccc(F)cc2)c(Cl)cc1Cl — within 1.5-fold, 4.04 µM
- O=C(O)c1ccc(N/N=C/c2ccc(-c3cc(Cl)ccc3Cl)o2)cc1 — 2.4-fold lower, 2.48 µM
- O=C(NCc1ccccc1)C(=O)Nc1nc(-c2ccccc2)cs1 — within 1.5-fold, 5.23 µM
- O=[N+]([O-])c1cc(Br)c(O)c(/C=N/Nc2nc3ccccc3s2)c1 — 4.8-fold lower, 1.23 µM
- CCOc1ccc(-n2cc(-c3ccccc3)c3c(=S)nc[nH]c32)cc1 — within 1.5-fold, 5.73 µM
- Cc1cc(NC(=O)/C=C/c2ccccc2Cl)n(-c2nc3ccccc3[nH]2)n1 — 3.1-fold lower, 1.9 µM
- O=C1c2ccc3c4c(ccc(c24)C(=O)N1c1cccc(O)c1)C(=O)N(c1cccc(O)c1)C3=O — 4.7-fold lower, 1.27 µM
- O=C(Nc1ccccc1Cl)/C(Cl)=C(\Cl)S(=O)c1ccccc1 (stereo unspecified) — 3-fold lower, 1.98 µM
- Cc1ccc(OCCn2c(NC(=O)c3ccco3)nc3ccccc32)cc1 — 1.7-fold lower, 3.58 µM
- CC(C)OC(=O)c1c(NS(=O)(=O)c2ccccc2)sc2c1CCCC2 — 1.5-fold lower, 3.88 µM
- CC(C)C1O/C(=N/C(=O)Nc2ccc(Cl)c(Cl)c2)NC1=O (stereo unspecified) — 2.4-fold lower, 2.53 µM
- CC(C)(C)c1ccc(OCCCC(=O)NC2=NCCS2)cc1 — 1.5-fold lower, 3.87 µM
- Cc1ccc(-c2nc3cc(NS(=O)(=O)c4ccc(C)cc4)ccc3o2)cc1 — within 1.5-fold, 6.28 µM
- O=c1c2cc(Cl)ccc2nc(-c2ccc(Cl)c(Cl)c2)n1O — 25-fold lower, 0.235 µM
- COc1ccc2nc(C3CCCCC3)nc(C3CCCCC3)c2c1 — 2.2-fold lower, 2.66 µM
- COC12C(COC(N)=O)C3=C(C(=O)C(C)=C(N)C3=O)N1CC1C2N1C (stereo unspecified) — lower, < 0.06 µM
- CCOC(=O)c1c(NS(=O)(=O)c2ccc(Br)cc2)sc2c1CCC2 — 3.7-fold lower, 1.6 µM
- N#Cc1c(NC(=O)CSc2n[nH]c(Cc3ccccc3)n2)oc(-c2ccccc2)c1-c1ccccc1 — within 1.5-fold, 4.93 µM
- CC1(C)S[C@@H]2[C@H](NC(=O)COc3ccccc3)C(=O)N2C1C(=O)OCc1cc2ccccc2n1S(=O)(=O)c1ccccc1 (stereo partly specified) — 1.8-fold lower, 3.33 µM
- COc1ccc2c(c1)C(=NNc1ccc(C(=O)O)cc1)c1cc(OC)ccc1-2 — within 1.5-fold, 4.68 µM
- O=C(Cc1csc(NC(=O)Nc2cccc(Cl)c2)n1)NCc1ccccn1 — within 1.5-fold, 6.87 µM
- CC1=NN(C(N)=S)C(=O)C1N=Nc1c(Br)cc(Br)cc1Br (stereo unspecified) — 2.1-fold lower, 2.78 µM
- Cc1ccccc1/C=N/Nc1nc2ccccc2[nH]1 — within 1.5-fold, 5.3 µM
- Cn1cnnc1SCc1ccc(C(=O)N=Nc2c(O)n(Cc3ccc(Cl)cc3)c3ccccc23)cc1 — within 1.5-fold, 4.51 µM
- O=C1C=C(Nc2ccccc2O)c2ccccc2C1=O — 1.9-fold lower, 3.08 µM
- CC(Oc1ccc(Cl)cc1Cl)c1nc(-c2ccc(NC(=O)c3ccco3)cc2)no1 (stereo unspecified) — within 1.5-fold, 5.82 µM
- CCN1C(=O)C(CC(=O)Nc2ccc(Br)cc2)N(CCCc2ccccc2)C1=S (stereo unspecified) — 2.1-fold lower, 2.9 µM
- O=C(Nc1nc(-c2cc(Cl)sc2Cl)cs1)c1cccs1 — within 1.5-fold, 8.68 µM
- Cc1cc(C)nc(SCC(=O)NC2=NN=C(c3ccc(Br)cc3)CS2)n1 — 1.9-fold lower, 3.07 µM
- O=C(Nc1nnc(C2=COCCO2)o1)c1ccc(Br)cc1 — 7.6-fold lower, 0.78 µM
- COc1ccc2ccc3c(c2c1)N=C[C@]1(O3)N(C)c2ccccc2C1(C)C — 4.2-fold lower, 1.41 µM
- Brc1ccc(-c2cn3c(n2)CCc2ccc4cccnc4c2-3)cc1 — 3.4-fold lower, 1.77 µM
- Cc1ccc(Cl)cc1NC1=C/C(=N\S(=O)(=O)c2cccs2)c2ccccc2C1=O — 6.6-fold lower, 0.908 µM
- O=C(Oc1ccc(Cl)c2cccnc12)c1ccco1 — 1.6-fold lower, 3.69 µM
- Cc1ccccc1-c1cc2nc(-c3ccc([N+](=O)[O-])cc3)cc(=O)n2[nH]1 — 2-fold higher, 11.9 µM
- O=c1[nH]c(CSc2ncnc3sccc23)nc2ccccc12 — 2.6-fold lower, 2.25 µM
- Cc1cccc(C)c1OC1(c2ccccc2)OC(=O)c2ccccc21 (stereo unspecified) — 2.1-fold lower, 2.85 µM
- O=c1cc(-c2ccccc2)nc2c(-c3ccccc3)c(C(F)(F)F)[nH]n12 — 1.8-fold lower, 3.23 µM
- Nc1ccc2c(c1)C(=O)C(=O)c1ccccc1-2 — 7.9-fold lower, 0.754 µM
- Cc1nnc(SC(C(=O)Nc2cc(Cl)cc(Cl)c2)c2ccccc2)[nH]c1=O (stereo unspecified) — 1.8-fold higher, 10.6 µM
- CCOC(=O)C1=C(O)c2ccccc2C(=O)/C1=C\c1ccc(CC)cc1 — within 1.5-fold, 8.49 µM
- Cc1ccccc1-c1cc(-c2ccccc2O)n[nH]1 — 2.1-fold higher, 12.3 µM
- CCOC(=O)c1sc(NC(=O)Nc2ccc(Cl)cc2)cc1C — 1.7-fold higher, 10.1 µM
- CCCCCCCC(=O)NNC(=O)c1c(O)c2ccccc2n(CCC)c1=O — 5.4-fold lower, 1.1 µM
- CC(=O)C(=Nc1ccc(Cl)cc1Cl)NNc1cccc(Cl)c1 — within 1.5-fold, 5.07 µM
- Cc1cc(C)c2nc(NNC(=O)c3ccc(S(=O)(=O)N4CCCC(C)C4)cc3)sc2c1 (stereo unspecified) — 20-fold lower, 0.297 µM
- O=C(Nc1cccc(Cl)c1N1CCCCC1)c1ccc2c(c1)OCCO2 — 1.8-fold higher, 10.5 µM
- Oc1c(CN2CCCCC2)cc(Br)c2cccnc12 — 5.3-fold lower, 1.12 µM
- Cc1cccc(N2CCN(C(=O)c3cc4n(n3)C(C(F)(F)F)CC(c3ccco3)N4)CC2)c1C (stereo unspecified) — within 1.5-fold, 4.2 µM
- COc1ccc(S(=O)(=O)Nc2cc3c4c(oc3c3ccccc23)CC(C)(C)CC4=O)cc1 — within 1.5-fold, 6.26 µM
- CC(C)n1cnc2c(NCc3ccccc3)nc(NCc3ccccc3)nc21 — 1.9-fold lower, 3.06 µM
- Cc1cccc(Cc2cnc(N3C(=N)SC(C)C3=O)s2)c1 (stereo unspecified) — 45-fold lower, 0.131 µM
- CCCCCCCCCCOC(=O)Cn1c(COc2ccccc2OC)[n+](C)c2ccccc21 — within 1.5-fold, 7.28 µM
- COc1cc2nc(=S)n3[nH]c(COc4ccccc4C)nc3c2cc1OC — 2.6-fold lower, 2.28 µM
- CCc1ccc(NC2=NCC(c3ccccc3)S2)cc1 (stereo unspecified) — within 1.5-fold, 6.4 µM
- COc1cnc(-c2ccccn2)nc1N(C)c1ccccc1 — within 1.5-fold, 6.8 µM
- CCc1ccc(/C=C2/SC(=S)N(CC(=O)Nc3nc4ccccc4s3)C2=O)cc1 — 2.4-fold lower, 2.52 µM
- CN1C(=O)/C(=C/c2ccccc2F)Sc2ccc(C(=O)N3CCCC3)cc21 — 5.6-fold lower, 1.06 µM
- Cc1ccc(C)c(-c2nnc(NC(=O)CCS(=O)(=O)c3ccccc3)o2)c1 — within 1.5-fold, 8.64 µM
- C=CCn1c(N)c(C(=O)Nc2cccc(C)c2)c2nc3ccccc3nc21 — 1.8-fold lower, 3.4 µM
- Oc1ccc(/C=N/N(Cc2ccccc2)c2ccccc2)cc1 — within 1.5-fold, 6.16 µM
- COc1ccc(CN2C(=O)c3ccccc3C(/C=N\OCc3ccc(C)cc3)C2=O)cc1 (stereo unspecified) — 4.6-fold lower, 1.29 µM
- c1ccc(-c2nc(NCc3ccco3)c3ccccc3n2)nc1 — within 1.5-fold, 4.7 µM
- COc1ccc(N=Nc2cc(-c3ccccc3)ccc2O)cc1 — 2.2-fold higher, 13.1 µM
- CC(C)c1ccc2[nH]c(O)c(N=NC(=O)c3cccc(S(=O)(=O)N4CCCCC4)c3)c2c1 — within 1.5-fold, 7.1 µM
- O=C(NC(=S)N1CCN(c2c(Cl)cccc2[N+](=O)[O-])CC1)c1cccs1 — within 1.5-fold, 5.15 µM
- C/C(=N\NC(=S)NCC(C)(C)C)c1cc(F)cc(F)c1O — 2.2-fold lower, 2.65 µM
- Cc1ccc(Cn2cc(/C=N/NC(=O)Cc3nnc(NC(=O)c4ccc(C)cc4)s3)c3ccccc32)cc1 — within 1.5-fold, 4.24 µM
- COc1ccc(Cn2c(SCc3cc(C)ccc3C)nc3cc(OC)c(OC)cc3c2=N)cc1 — 2.2-fold lower, 2.73 µM
- CCCCCC(=O)NNC(=O)c1c(O)c2ccccc2n(CC)c1=O — 4.4-fold lower, 1.36 µM
- c1ccc(CCNc2nc(-c3ccccn3)cs2)cc1 — 1.6-fold lower, 3.71 µM
- Oc1c(Cl)cc(Cl)cc1C=Nc1cc(C(F)(F)F)ccc1N1CCc2ccccc2C1 — 2-fold lower, 3 µM
- CCOC(=O)N1CCC(N2Cc3cccc(C(=O)Nc4ccc(F)cc4)c3C2=O)CC1 — within 1.5-fold, 5.9 µM

In the case of `CCc1cc(C(=O)N2CCCC(CCC(=O)NCc3cccc(OC)c3)C2)no1` (stereo unspecified), the EC50 is reported as > 15 µM (inactive).
In the case of `COc1ccccc1CNC(=O)CSc1nc(=O)n(Cc2ccncc2)c2c1CCC2`, the EC50 is reported as > 15 µM (inactive).
With `FC(F)(F)c1cccc(NC(=S)N2CCCC2)c1` the EC50 was > 15 µM (inactive).
With `O=C(NCc1ccccn1)Nc1ccc(F)c(Cl)c1` the EC50 was > 15 µM (inactive).
With `Cc1n[nH]c(=O)c2c(NC(=O)CSc3nnnn3-c3ccccc3)oc(C)c12` the EC50 was > 15 µM (inactive).
For `CN(C(=O)Cc1c(C(=O)O)n(C)c2ccccc12)c1ccc(F)cc1`, the EC50 was > 15 µM (inactive).
`CC(C)N1CCc2c(sc(NC(=O)c3ccc(S(=O)(=O)N(C)CC4CCCO4)cc3)c2C(N)=O)C1` (stereo unspecified) was tested, and the EC50 was > 15 µM (inactive).
`CC(NS(=O)(=O)/C=C/c1ccccc1)C(=O)O` (stereo unspecified) was tested, and the EC50 was > 15 µM (inactive).
`O=C(CSc1nnc(NC(=O)c2cccc(Cl)c2)s1)NCC1CCCO1` (stereo unspecified) was tested, and the EC50 was > 15 µM (inactive).
With `C/C(=N/NC(=O)CNC(=O)c1cccnc1)c1cccc([N+](=O)[O-])c1` the EC50 was > 15 µM (inactive).
